Data taken from patent US20230149419A1, “COMPOSITION FOR PREVENTING OR TREATING NEUROINFLAMMATORY DISEASES, COMPRISING CHLORPROMAZINE” (GliaCellTech Inc., priority 2020, published 2023).

Tests used:
[1] = tested on: primary microglia from wild-type mice; assay: Effect of REV-ERBα agonist on LPS-induced IL-6 secretion (ELISA), wild-type microglia; type: cell-based, mouse; settings: for IL-6 secreted: WT microglia
Method: (§1) The efficacy of SR9009 was evaluated by analyzing IL-6 at protein and mRNA expression levels according to post-LPS treatment time (2, 6, 12, and 24 hours) in the same ELISA and qRT-PCR as in Example 5.

[2] = tested on: primary microglia from Psen2 mutation mouse model of Alzheimer's disease; assay: Effect of REV-ERBα agonist on LPS-induced IL-6 secretion (ELISA), Psen2 mutation microglia; type: cell-based; settings: for IL-6 secreted: KI/+ microglia
Method: as §1

[3] = tested on: primary microglia from wild-type mice; assay: Effect of REV-ERBα agonist on LPS-induced IL-6 mRNA (qRT-PCR), wild-type microglia; type: cell-based, mouse; settings: for IL-6 mRNA expression level: WT microglia
Method: as §1

[4] = tested on: primary microglia from Psen2 mutation mouse model of Alzheimer's disease; assay: Effect of REV-ERBα agonist on LPS-induced IL-6 mRNA (qRT-PCR), Psen2 mutation microglia; type: cell-based; settings: for IL-6 mRNA expression level: KI/+ microglia
Method: as §1

[5] = wild-type microglia, group 32 vs 31, 2, 6, 12 and 24 hours
[6] = 10 NM SR9009, LPS 1 μg/mL 2 h (Group 34)
[7] = 10 NM SR9009, LPS 1 μg/mL 6 h (Group 34)
[8] = 10 NM SR9009, LPS 1 μg/mL 12 h (Group 34)
[9] = 10 NM SR9009, LPS 1 μg/mL 24 h (Group 34)

CCOC(=O)N1CCC(CN(Cc2ccc(Cl)cc2)Cc2ccc([N+](=O)[O-])s2)C1 (centres unmarked) [SR9009]
IL-6 secreted ([1]; 10 NM SR9009, LPS 1 μg/mL 2 h (Group 32)): 24.467 pg/mL | IL-6 secreted ([1]; 10 NM SR9009, LPS 1 μg/mL 6 h (Group 32)): 85.630 pg/mL | IL-6 secreted ([1]; 10 NM SR9009, LPS 1 μg/mL 12 h (Group 32)): 361.583 pg/mL | IL-6 secreted ([1]; 10 NM SR9009, LPS 1 μg/mL 24 h (Group 32)): 555.053 pg/mL | production of IL-6 (in words) [1, 5]: repressed the production of IL-6 | IL-6 secreted [2, 6]: 38.229 pg/mL | IL-6 secreted [2, 7]: 332.114 pg/mL | IL-6 secreted [2, 8]: 1146.560 pg/mL | IL-6 secreted [2, 9]: 1657.510 pg/mL | production of IL-6 (in words) ([2]; Psen2 mutation microglia, SR9009-treated group vs group 33): cannot repress | IL-6 mRNA expression level ([3]; SR9009, LPS 1 μg/mL 2 h (Group 32)): 0.456 fold | IL-6 mRNA expression level ([3]; SR9009, LPS 1 μg/mL 6 h (Group 32)): 1.098 fold | IL-6 mRNA expression level ([3]; SR9009, LPS 1 μg/mL 12 h (Group 32)): 1.129 fold | IL-6 mRNA expression level ([3]; SR9009, LPS 1 μg/mL 24 h (Group 32)): 2.150 fold | mRNA expression of IL-6 (in words) [3, 5]: repressed the mRNA expression of IL-6 | IL-6 mRNA expression level [4, 6]: 1.134 fold | IL-6 mRNA expression level [4, 7]: 7.810 fold | IL-6 mRNA expression level [4, 8]: 8.512 fold | IL-6 mRNA expression level [4, 9]: 11.141 fold | mRNA expression of IL-6 (in words) ([4]; Psen2 mutant microglia, group 34 vs 33): cannot repress
